Measurements reported in patent publication US11952364B2, “TRK inhibitors useful as anticancer drugs” (TYLIGAND BIOSCIENCE (SHANGHAI) LIMITED, priority 2018, dated 2024).

Experiments:
[1] = tested on: TRK Fusion-Positive Cancers; conditions: cited from earlier work
FLT3(ITD) = test: KINOMEscan competition binding assay; parameters: species or system human; conditions: 2 μM
Protocol: (§1) The experiment was performed according to the standard kinase activity determination protocol by Eurofins DiscoverX Corporation (11180 Roselle St. Suite D, San Diego, CA, USA, www.discoverX.com). Specifically, the experiment was conducted using the KINOMEscan™ screening platform, which adopts an active site-directed competition binding assay to quantitatively measure the interaction between test compounds and more than hundreds of human kinases and disease-related mutants. The working principle of the screening platform and kinase assay methods are well known in the art, for example, see www.discoverX.com.

[2] = biological target: kinases listed in Table 10; test: KINOMEscan kinase panel (kinase profile); assay type: binding, human
Protocol: as §1
The experiment was performed according to the standard kinase activity determination protocol by Eurofins DiscoverX Corporation (11180 Roselle St. Suite D, San Diego, CA USA, www.discoverX.com).

[3] = Metabolic stability in liver microsomes (overall statement); assay type: in vitro ADME; conditions: statement in words
Source text: According to standard methods conventional in the art for in vitro metabolic stability studies, for example those protocols described in Kems, Edward H. and Di Li (2008). Drug-like Properties: Concepts. Structure Design and Methods: from ADME to Toxicity Optimization. San Diego: Academic Press; Di, Li et al., Optimization of a Higher Throughput Microsomal Stability Screening Assay for Profiling Drug Discovery Candidates, J. Biomol. Screen. 2003, 8(4), 453., the metabolic stability test in liver microsomes of the present compound was performed analogously as follows.
The in vitro metabolic stability of the compound in 5 species (mouse, rat, dog, monkey, and human) was evaluated by liver microsomal stability test. 0.1M potassium phosphate buffer solution (pH 7.4, containing 1.0 mM EDTA) was prepared. The test compound and the control compound were prepared into a 10 mM DMSO solution, and then 10 μL of the 10 mM DMSO compound solution was added to 190 μL of acetonitrile to prepare a 500 μM compound solution. […]
The natural logarithm of the residue percentage at each time point was subjected to linearly regression as a factor of incubation time to obtain Slope k, and then the liver microsome clearance rate (CLint^mic) and in vitro half-life (T½) were calculated according to the following formula: […]

FLT3(N841I) = FLT3(N841I) (Homo sapiens (Human), UniProt P36888, N841I); test: KINOMEscan competition binding assay
Protocol: as §1

EPHA8 = EPHA8 (Homo sapiens (Human), UniProt P29322); test: KINOMEscan competition binding assay
Chain of EPHA8 (P29322 28-1005): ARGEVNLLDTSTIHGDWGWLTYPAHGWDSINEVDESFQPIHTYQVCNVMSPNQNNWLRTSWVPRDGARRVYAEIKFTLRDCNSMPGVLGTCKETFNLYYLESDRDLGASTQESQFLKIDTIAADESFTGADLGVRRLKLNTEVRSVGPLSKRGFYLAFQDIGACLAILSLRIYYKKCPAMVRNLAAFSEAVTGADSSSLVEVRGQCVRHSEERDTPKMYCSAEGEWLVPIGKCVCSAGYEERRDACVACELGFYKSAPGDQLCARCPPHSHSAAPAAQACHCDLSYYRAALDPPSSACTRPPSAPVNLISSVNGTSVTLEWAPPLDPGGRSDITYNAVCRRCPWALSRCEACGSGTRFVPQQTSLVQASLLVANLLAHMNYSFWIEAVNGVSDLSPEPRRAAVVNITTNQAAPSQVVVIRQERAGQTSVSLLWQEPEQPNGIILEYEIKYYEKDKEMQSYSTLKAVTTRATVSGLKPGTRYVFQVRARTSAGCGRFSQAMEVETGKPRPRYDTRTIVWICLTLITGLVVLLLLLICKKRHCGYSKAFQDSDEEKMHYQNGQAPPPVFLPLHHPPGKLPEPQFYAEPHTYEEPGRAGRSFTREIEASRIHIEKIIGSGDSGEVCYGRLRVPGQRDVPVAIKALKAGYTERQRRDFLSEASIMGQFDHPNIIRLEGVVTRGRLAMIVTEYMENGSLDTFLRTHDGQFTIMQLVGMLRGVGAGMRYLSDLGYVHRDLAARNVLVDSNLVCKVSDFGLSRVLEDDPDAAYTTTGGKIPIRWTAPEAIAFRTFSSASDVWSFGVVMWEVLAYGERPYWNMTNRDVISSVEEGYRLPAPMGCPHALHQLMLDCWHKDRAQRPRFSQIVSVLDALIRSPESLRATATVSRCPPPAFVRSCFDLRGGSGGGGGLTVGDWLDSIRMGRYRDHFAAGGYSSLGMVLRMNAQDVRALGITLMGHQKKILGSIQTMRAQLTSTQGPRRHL
Protocol: as §1

TRKB = TRKB (Homo sapiens (Human), UniProt Q16620); test: KINOMEscan competition binding assay
Chain of TRKB (Q16620 32-822): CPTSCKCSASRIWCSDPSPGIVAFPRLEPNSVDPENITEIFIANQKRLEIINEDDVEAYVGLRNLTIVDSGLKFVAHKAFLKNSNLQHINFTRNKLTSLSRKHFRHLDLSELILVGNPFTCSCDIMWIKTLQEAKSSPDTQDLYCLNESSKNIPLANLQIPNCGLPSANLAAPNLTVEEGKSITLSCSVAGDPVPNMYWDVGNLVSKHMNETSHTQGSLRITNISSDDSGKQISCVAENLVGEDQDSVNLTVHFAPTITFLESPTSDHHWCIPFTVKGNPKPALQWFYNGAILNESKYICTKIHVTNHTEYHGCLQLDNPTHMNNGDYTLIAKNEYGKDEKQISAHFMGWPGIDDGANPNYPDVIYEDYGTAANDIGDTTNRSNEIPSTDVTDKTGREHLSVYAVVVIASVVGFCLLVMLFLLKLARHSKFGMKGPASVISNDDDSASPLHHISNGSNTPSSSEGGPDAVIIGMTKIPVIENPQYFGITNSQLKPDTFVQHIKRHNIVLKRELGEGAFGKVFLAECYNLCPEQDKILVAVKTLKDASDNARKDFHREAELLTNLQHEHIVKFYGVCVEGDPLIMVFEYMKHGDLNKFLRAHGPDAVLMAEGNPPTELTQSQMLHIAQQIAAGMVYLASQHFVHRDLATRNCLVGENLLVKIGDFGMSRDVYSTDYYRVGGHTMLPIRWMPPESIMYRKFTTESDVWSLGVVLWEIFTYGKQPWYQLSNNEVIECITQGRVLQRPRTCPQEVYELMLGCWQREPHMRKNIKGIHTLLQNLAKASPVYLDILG
Protocol: as §1

KIT(V559D, T670I) = KIT(V559D, T670I) (Homo sapiens (Human), UniProt P10721, T670I/V559D); test: KINOMEscan competition binding assay
Chain of KIT(V559D, T670I) (P10721 26-976 V559D/T670I): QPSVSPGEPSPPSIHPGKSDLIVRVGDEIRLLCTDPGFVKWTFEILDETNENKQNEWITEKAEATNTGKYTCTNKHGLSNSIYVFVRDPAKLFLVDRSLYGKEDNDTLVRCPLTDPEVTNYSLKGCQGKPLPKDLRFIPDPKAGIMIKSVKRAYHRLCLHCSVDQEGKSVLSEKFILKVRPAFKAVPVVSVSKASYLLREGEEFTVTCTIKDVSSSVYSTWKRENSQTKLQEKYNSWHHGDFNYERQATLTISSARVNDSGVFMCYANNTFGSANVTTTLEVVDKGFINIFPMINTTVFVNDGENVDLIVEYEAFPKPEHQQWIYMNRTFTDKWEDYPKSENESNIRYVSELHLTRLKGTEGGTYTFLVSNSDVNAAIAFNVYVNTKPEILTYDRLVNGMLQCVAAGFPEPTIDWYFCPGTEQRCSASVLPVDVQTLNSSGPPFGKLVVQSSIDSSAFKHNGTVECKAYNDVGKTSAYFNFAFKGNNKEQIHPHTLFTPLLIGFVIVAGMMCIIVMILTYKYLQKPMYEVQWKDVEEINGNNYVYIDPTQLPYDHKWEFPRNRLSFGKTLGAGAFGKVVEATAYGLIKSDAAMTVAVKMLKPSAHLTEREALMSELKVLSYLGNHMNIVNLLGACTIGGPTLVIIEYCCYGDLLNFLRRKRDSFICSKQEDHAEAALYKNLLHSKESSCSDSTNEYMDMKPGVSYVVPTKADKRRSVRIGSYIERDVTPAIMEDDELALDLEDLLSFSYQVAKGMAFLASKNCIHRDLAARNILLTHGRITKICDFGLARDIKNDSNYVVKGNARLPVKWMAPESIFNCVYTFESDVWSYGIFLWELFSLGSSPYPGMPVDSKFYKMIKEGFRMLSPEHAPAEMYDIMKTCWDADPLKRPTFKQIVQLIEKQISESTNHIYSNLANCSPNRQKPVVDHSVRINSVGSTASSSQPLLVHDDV
Protocol: as §1

NEK9 = NEK9 (Homo sapiens (Human), UniProt Q8TD19); test: KINOMEscan competition binding assay
Protocol: as §1

CDK7 = CDK7 (Homo sapiens (Human), UniProt P50613); test: KINOMEscan competition binding assay
Chain of CDK7 (P50613 whole entry): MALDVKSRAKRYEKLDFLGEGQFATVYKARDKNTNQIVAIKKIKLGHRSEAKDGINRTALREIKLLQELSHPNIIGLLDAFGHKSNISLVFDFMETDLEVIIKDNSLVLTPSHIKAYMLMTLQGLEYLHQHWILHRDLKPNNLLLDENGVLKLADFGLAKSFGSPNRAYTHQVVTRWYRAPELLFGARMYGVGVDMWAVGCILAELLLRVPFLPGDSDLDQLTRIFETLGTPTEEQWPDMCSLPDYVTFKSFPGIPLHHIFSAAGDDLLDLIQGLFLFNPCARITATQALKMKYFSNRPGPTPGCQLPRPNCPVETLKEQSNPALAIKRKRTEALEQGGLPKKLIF
Protocol: as §1

TRKC = TRKC (Homo sapiens (Human), UniProt Q16288); test: KINOMEscan competition binding assay
Protocol: as §1

MET = MET (Homo sapiens (Human), UniProt P08581); test: KINOMEscan competition binding assay
Chain of MET (P08581 25-1390): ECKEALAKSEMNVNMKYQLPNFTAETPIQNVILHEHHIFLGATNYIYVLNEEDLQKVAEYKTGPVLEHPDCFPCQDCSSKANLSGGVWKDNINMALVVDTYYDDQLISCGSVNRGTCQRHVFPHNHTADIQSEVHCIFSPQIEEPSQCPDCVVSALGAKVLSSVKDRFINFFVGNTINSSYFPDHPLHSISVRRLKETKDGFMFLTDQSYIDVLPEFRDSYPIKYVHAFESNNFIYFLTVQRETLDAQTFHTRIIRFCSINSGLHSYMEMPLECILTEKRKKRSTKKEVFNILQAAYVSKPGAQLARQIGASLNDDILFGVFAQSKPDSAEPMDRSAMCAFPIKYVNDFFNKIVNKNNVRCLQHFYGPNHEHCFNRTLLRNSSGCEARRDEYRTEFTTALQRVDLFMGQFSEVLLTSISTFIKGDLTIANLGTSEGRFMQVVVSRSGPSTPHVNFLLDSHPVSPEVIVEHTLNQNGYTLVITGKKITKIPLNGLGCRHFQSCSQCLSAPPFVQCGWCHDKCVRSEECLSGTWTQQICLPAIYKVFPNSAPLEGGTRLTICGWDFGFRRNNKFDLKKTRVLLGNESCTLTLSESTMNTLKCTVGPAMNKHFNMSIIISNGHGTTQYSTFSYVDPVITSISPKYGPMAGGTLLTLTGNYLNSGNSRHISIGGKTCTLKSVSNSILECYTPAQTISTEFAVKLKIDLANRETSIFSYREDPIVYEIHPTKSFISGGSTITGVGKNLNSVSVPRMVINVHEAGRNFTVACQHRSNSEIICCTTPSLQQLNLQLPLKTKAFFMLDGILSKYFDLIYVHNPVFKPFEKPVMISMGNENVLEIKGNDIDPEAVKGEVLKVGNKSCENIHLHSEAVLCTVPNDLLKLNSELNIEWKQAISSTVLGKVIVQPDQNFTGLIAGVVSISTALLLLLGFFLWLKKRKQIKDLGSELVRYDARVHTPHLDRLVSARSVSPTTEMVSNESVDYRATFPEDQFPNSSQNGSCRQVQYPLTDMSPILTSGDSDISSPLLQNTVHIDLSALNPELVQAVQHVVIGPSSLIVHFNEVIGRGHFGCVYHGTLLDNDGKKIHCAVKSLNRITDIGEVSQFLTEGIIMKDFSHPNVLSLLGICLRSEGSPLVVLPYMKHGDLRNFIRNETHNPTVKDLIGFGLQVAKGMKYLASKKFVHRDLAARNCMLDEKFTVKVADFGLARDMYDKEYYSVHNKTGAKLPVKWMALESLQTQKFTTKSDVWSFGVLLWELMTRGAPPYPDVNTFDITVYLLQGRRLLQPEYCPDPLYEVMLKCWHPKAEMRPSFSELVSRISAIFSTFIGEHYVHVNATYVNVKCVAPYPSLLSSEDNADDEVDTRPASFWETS
Protocol: as §1

MUSK = MUSK (Homo sapiens (Human), UniProt O15146); test: KINOMEscan competition binding assay
Protocol: as §1

FLT4 = FLT4 (Homo sapiens (Human), UniProt P35916); test: KINOMEscan competition binding assay
Protocol: as §1

P450 3A4 = P450 3A4 (Homo sapiens (Human), UniProt P08684); test: Cytochrome P450 inhibition in human liver microsomes; assay type: in vitro ADME
Chain of P450 3A4 (P08684 whole entry): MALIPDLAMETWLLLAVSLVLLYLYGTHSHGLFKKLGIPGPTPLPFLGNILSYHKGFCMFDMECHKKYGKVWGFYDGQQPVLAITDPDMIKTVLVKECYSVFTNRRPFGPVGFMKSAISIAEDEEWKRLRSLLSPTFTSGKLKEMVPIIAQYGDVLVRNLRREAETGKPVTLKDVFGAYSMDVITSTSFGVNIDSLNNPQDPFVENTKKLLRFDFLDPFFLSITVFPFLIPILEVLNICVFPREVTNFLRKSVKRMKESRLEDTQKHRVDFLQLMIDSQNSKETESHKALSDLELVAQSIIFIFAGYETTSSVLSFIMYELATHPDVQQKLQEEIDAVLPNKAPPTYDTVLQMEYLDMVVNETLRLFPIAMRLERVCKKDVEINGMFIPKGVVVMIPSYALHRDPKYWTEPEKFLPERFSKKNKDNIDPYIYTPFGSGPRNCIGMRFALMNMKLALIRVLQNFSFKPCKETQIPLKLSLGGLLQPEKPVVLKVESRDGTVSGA
Protocol: The test compounds were evaluated by detecting the metabolism of human liver microsomes for the substrates of different subtypes of Cyp450. The liver microsomes (Sekisui XenoTech, LLC., human liver microsomes, cat. #H0610) were slowly melted on ice, and 0.482 mL of the liver microsome solution (20 mg/mL) was added to 30 mL of 100 mM potassium phosphate solution to prepare a liver microsome working solution with a concentration of 0.316 mg/mL. The test compound and specific inhibitors of different Cyp450 subtypes (as a control) were prepared into 10 mM DMSO solutions, and then 20 μL of the 10 mM DMSO compound solution was added to 180 μL of acetonitrile to obtain a 1 mM compound solution. 2 μL of such 1 mM test compound or inhibitor solution was added to 150 μL of 0.316 mg/mL liver microsome working solution to obtain a 13.16 μM compound working solution. 45.3 mg of NADPH (SIGMA, cat. #V900362) was weighted and added into 13.59 mL of deionized water to prepare a 4 mM NADPH aqueous solution. 0.2 mL of 2 mg/mL internal standard stock solution (dexamethasone in acetonitrile) was added to 1000 mL of acetonitrile (SIGMA, cat. #271004) to prepare a reaction stop solution and stored at 4° C. […] The single point IC50 values were calculated according to the following formula. […]

In the case of `O=C(Nc1cnn2ccc(N3CCC[C@@H]3c3cc(F)ccc3F)nc12)N1CC[C@H](O)C1` [LOXO-101, Larotrectinib, reference compound], the “patients had no disease progression” value ([1]; after 1 year of treatment) is listed as 55%, the “patients still responded to treatment” value ([1]; after 1 year of treatment) is listed as 71% and the “overall patient response rate (ORR)” value ([1]; patients, more than ten tumor types) is listed as 75%. For the same molecule, the complete response ([1]; patients) was 13% and the partial response ([1]; patients) was 62%.

For `COc1ccc(C(=O)Nc2ccc(Oc3cc4cnn(C)c4cc3-c3cn[nH]c3)c(F)c2)c(=O)n1-c1ccc(F)cc1` [Example 12, N-(3-fluoro-4-(1-methyl-6-(1H-pyrazol-4-yl)-1H-indazol-5-yloxy)phenyl)-1-(4-fluorophenyl)-6-methoxy-2-oxo-1,2-dihydropyridine-3-carboxamide], the “% inhibition” value (FLT3(ITD)) was 98%, the “kinase activity profile compared with Merestinib” value ([2]; 2 μM, FIG. 2, kinases with a difference of inhibition rate >20%) was “significantly different trend in the kinase activity profile” and the “inhibitory activity on the kinases listed in Table 10” value ([2]; concentration of 2 μM) was greater than 90%. The “metabolic stability in liver microsomes compared with Merestinib” value [3] was “significantly improved metabolic stability in liver microsomes”, the inhibition at 2 µM (FLT3(N841I)) was 100% and the inhibition at 2 µM (EPHA8) was 96%. It also gave an inhibition at 2 µM (TRKB) of 94%, an inhibition at 2 µM (KIT(V559D, T670I)) of 99% and an inhibition at 2 µM (NEK9) of 95%. For the same molecule, the inhibition at 2 µM (CDK7) was 96%, the inhibition at 2 µM (TRKC) was 97% and the inhibition at 2 µM (MET) was 93%. The inhibition at 2 µM (MUSK) was 98%, the inhibition at 2 µM (FLT4) was 92% and the IC50 (P450 3A4) was greater than 10 µM.
